Data reported in ChEMBL document CHEMBL4715849, “Recent Progress in the Discovery of Antifungal Agents Targeting the Cell Wall” (J Med Chem, 2020).
Values after ≈ are worked out from the molar mass of the structure shown.

Tests used:
Candida albicans [1] = assay: Antifungal activity against Candida albicans ATCC 44373 incubated for 48 to 72 hrs by broth microdilution method; assay type: functional; conditions: time 48-72 hrs
Chitin synthase 1 = Chitin synthase 1 (Candida albicans, UniProt P23316); assay: Inhibition of Chitin synthase 1 in Candida albicans (chs3del::hisG/chs3del::hisG) microsomes using UDP-[U14C]-GlcNac as substrate; set-up: species or system Microsome
Chitin synthase 1, sequence (P23316 whole entry): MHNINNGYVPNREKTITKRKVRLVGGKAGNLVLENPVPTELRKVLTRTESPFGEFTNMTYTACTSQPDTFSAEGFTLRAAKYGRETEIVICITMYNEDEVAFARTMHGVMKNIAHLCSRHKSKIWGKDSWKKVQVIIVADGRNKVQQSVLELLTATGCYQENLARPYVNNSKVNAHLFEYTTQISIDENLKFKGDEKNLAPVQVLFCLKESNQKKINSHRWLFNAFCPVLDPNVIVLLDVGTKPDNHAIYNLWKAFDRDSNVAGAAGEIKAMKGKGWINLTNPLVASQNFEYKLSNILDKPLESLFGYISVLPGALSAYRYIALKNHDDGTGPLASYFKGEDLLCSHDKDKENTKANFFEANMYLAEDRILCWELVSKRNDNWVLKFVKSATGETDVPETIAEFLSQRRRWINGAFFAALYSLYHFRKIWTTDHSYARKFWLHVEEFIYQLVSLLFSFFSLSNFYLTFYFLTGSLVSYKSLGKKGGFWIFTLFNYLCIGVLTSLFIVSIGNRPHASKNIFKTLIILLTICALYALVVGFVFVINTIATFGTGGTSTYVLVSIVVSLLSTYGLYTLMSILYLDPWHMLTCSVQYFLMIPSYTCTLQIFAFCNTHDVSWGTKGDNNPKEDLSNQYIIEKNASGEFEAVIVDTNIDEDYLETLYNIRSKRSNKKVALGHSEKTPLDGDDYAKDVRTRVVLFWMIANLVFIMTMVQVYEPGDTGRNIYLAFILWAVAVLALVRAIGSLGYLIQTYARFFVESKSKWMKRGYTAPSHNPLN

[2] = system: Meyerozyma guilliermondii; assay: Antifungal activity against Candida guilliermondii incubated for 48 to 72 hrs by broth microdilution method; assay type: functional; conditions: time 48-72 hrs
Chitin synthase 2 = Chitin synthase 2 (Candida albicans, UniProt P30572); assay: Inhibition of Chitin synthase 2 in Candida albicans (chs3del::hisG/chs3del::hisG) microsomes using UDP-[U14C]-GlcNac as substrate; set-up: species or system Microsome
Chitin synthase 2, sequence (P30572 whole entry): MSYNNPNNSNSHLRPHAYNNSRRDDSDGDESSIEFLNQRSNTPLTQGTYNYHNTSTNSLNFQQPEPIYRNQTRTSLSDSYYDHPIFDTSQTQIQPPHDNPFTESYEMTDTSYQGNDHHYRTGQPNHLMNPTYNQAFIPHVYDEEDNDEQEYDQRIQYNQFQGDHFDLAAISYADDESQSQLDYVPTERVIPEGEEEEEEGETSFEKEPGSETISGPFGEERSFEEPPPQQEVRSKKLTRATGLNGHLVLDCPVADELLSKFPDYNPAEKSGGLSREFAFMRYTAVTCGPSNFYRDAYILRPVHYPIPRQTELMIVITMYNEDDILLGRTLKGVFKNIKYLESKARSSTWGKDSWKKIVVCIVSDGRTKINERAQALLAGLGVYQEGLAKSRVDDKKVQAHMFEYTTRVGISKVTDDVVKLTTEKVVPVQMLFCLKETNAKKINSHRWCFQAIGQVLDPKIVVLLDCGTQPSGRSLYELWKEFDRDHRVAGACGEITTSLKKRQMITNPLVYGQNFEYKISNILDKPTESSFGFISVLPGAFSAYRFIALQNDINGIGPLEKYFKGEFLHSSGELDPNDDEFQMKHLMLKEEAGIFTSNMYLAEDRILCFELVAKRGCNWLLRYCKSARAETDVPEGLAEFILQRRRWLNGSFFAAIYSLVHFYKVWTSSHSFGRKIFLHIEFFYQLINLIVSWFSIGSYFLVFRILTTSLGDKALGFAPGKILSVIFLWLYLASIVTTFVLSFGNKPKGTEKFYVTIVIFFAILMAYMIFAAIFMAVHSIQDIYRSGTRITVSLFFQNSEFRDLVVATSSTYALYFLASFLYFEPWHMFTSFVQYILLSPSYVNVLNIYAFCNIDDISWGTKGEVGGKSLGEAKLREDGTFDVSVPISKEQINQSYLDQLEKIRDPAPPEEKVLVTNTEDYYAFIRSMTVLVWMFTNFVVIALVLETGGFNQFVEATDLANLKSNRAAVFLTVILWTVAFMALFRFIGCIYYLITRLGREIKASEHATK

Pichia kudriavzevii = assay: Antifungal activity against Candida krusei incubated for 48 to 72 hrs by broth microdilution method; assay type: functional; conditions: time 48-72 hrs
Candida albicans [3] = assay: Antifungal activity against Candida albicans ATCC 200955 incubated for 48 to 72 hrs by broth microdilution method; assay type: functional; conditions: time 48-72 hrs
Candida albicans [4] = assay: Antifungal activity against Candida albicans ATCC 38248 incubated for 48 to 72 hrs by broth microdilution method; assay type: functional; conditions: time 48-72 hrs
Candida albicans [5] = assay: Antifungal activity against Candida albicans ATCC 10231 incubated for 48 to 72 hrs by broth microdilution method; assay type: functional; conditions: time 48-72 hrs
Candida albicans [6] = assay: Antifungal activity against Candida albicans AMB-25 incubated for 48 hrs by serial two-fold dilution method; assay type: functional
[7] = Toxicity in iv dosed mouse; assay type: organism-based; conditions: in vivo
[8] = Inhibition of Candida albicans AMB-25 glucosamine-6-phosphate synthase using glutamine as substrate incubated for 30 mins
[9] = Competitive inhibition of Candida albicans AMB-25 glucosamine synthetase using glutamine as substrate incubated for 30 mins by Lineweaver-Burk plot based Dixon plot analysis
Blastomyces dermatitidis = assay: Antifungal activity against Blastomyces dermatitidis IFO8144 incubated for 40 hrs by serial agar dilution method; assay type: functional
Sporothrix schenckii = assay: Antifungal activity against Sporothrix schenckii IFO8158 incubated for 40 hrs by serial agar dilution method; assay type: functional
Fusarium verticillioides = assay: Antifungal activity against Fusarium monoliforme A2284 incubated for 40 hrs by serial agar dilution method; assay type: functional
Cryptococcus neoformans [10] = assay: Antifungal activity against Cryptococcus neoformans D49 incubated for 40 hrs by serial agar dilution method; assay type: functional
Aspergillus fumigatus [11] = assay: Antifungal activity against Aspergillus fumigatus IAM2034 incubated for 40 hrs by serial agar dilution method; assay type: functional
Candida albicans [12] = assay: Antifungal activity against Candida albicans A9540 incubated for 40 hrs by serial agar dilution method; assay type: functional
[13] = system: Trichophyton mentagrophytes; assay: Antifungal activity against Trichophyton mentagrophytes D155 incubated for 40 hrs by serial agar dilution method; assay type: functional
Scedosporium boydii = assay: Antifungal activity against Petriellidium boydii IFO8078 incubated for 40 hrs by serial agar dilution method; assay type: functional
Candida albicans [14] = assay: Antifungal activity against Candida albicans IAM 888 incubated for 40 hrs by serial agar dilution method; assay type: functional
Cryptococcus neoformans [15] = assay: Antifungal activity against Cryptococcus neoformans IAM4514 incubated for 40 hrs by serial agar dilution method; assay type: functional
Aspergillus fumigatus [16] = assay: Antifungal activity against Aspergillus fumigatus IAM2530 incubated for 40 hrs by serial agar dilution method; assay type: functional
Aspergillus flavus [17] = assay: Antifungal activity against Aspergillus flavus FA21436 NRRL 484 incubated for 40 hrs by serial agar dilution method; assay type: functional
[18] = system: Trichophyton mentagrophytes; assay: Antifungal activity against Trichophyton mentagrophytes N0.4329 incubated for 40 hrs by serial agar dilution method; assay type: functional
Candida albicans [19] = assay: Antifungal activity against Candida albicans A9540 infected in iv dosed ICR mouse assessed as protection against fungus-induced lethal infection dosed once immediately following fungal challenge and measured on day 20 post infection; assay type: functional; conditions: 480 h, time 20 day, read-out: PD50
[20] = Inhibition of Saccharomyces cerevisiae CGMCC 2.145 CHS using UDP-GlcNAc as substrate incubated for 60 min by WGA-HRP tracer based method
Nakaseomyces glabratus = assay: Antifungal activity against Candida glabrata incubated for 24 hrs by serial 2-fold dilution method; assay type: functional
Candida tropicalis = assay: Antifungal activity against Candida tropicalis incubated for 24 hrs by serial 2-fold dilution method; assay type: functional
Candida albicans [21] = assay: Antifungal activity against Candida albicans incubated for 24 hrs by serial 2-fold dilution method; assay type: functional
Candida albicans [22] = assay: Antifungal activity against Candida albicans ATCC 48130 incubated for 1 day by NCCLS M27-A2 microdilution method; assay type: functional; conditions: ATCC 48130, 24 h
Candida albicans [23] = assay: Antifungal activity against Candida albicans ATCC2001 incubated for 2 day by NCCLS M27-A2 microdilution method; assay type: functional; conditions: ATCC2001, 48 h
Aspergillus fumigatus [24] = assay: Antifungal activity against Aspergillus fumigatus CF1083 incubated for 1 day by NCCLS M27-A2 microdilution method; assay type: functional; conditions: CF1083, 24 h
Candida albicans [25] = assay: Antifungal activity against Candida albicans CY1124 incubated for 1 day by NCCLS M27-A2 microdilution method; assay type: functional; conditions: CY1124, 24 h
Aspergillus fumigatus [26] = assay: Antifungal activity against Aspergillus fumigatus CF924390 incubated for 1 day by NCCLS M27-A2 microdilution method; assay type: functional; conditions: CF924390, 24 h
Aspergillus fumigatus [27] = assay: Antifungal activity against Aspergillus fumigatus CF1003 incubated for 1 day by NCCLS M27-A2 microdilution method; assay type: functional; conditions: CF1003, 24 h
Candida albicans [28] = assay: Antifungal activity against Candida albicans IFO0005 incubated for 3 day by NCCLS M27-A2 microdilution method; assay type: functional; conditions: IFO0005, 72 h
Candida albicans [29] = assay: Antifungal activity against Candida albicans CY3003 incubated for 1 day by NCCLS M27-A2 microdilution method; assay type: functional; conditions: CY3003, 24 h
Candida albicans [30] = assay: Antifungal activity against Candida albicans CY1123 incubated for 1 day by NCCLS M27-A2 microdilution method; assay type: functional; conditions: CY1123, 24 h
[31] = Inhibition of Candida albicans IFO1060 1,3-beta-D-glucan synthase using UDP-[6-3H]-glucose as substrate incubated for 30 mins by radioactivity
Candida albicans [32] = assay: Antifungal activity against Candida albicans CMCC 76615 incubated for 24 hrs; assay type: functional
Aspergillus fumigatus [33] = assay: Antifungal activity against Aspergillus fumigatus GIMCC 3.19 incubated for 24 hrs; assay type: functional
Aspergillus flavus [34] = assay: Antifungal activity against Aspergillus flavus ATCC 16870 incubated for 24 hrs; assay type: functional
Cryptococcus neoformans [35] = assay: Antifungal activity against Cryptococcus neoformans ATCC 32719 incubated for 24 hrs; assay type: functional

Which MIC (Candida albicans [1]) does the source give for COc1ccc2c(Cc3ccc(C(C)(C)C)cc3)c3[n+](cc2c1OC)CCc1cc2c(cc1-3)OCO2 here?
Its MIC is 1.56 µg/mL.

What about the IC50 (Chitin synthase 1) of the same molecule?
Its IC50 is 22 µM.

What about the MIC [2] of the same molecule?
Its MIC is 6.25 µg/mL.

What about the IC50 (Chitin synthase 2) of the same molecule?
The IC50 was 22 µM.

What about the MIC (Pichia kudriavzevii) of the same molecule?
Its MIC is 1.56 µg/mL.

What about the MIC (Candida albicans [3]) of the same molecule?
Its MIC is 1.56 µg/mL.

And the MIC (Candida albicans [4])?
The MIC was 1.56 µg/mL.

And the MIC (Candida albicans [5])?
Its MIC is 1.56 µg/mL.

For CCC[C@H](N)C(=O)N[C@@H](CNC(=O)/C=C/C(=O)OC)C(=O)O, which MIC (Candida albicans [6]) is on record?
The MIC was 0.4 µg/mL (≈ 1.27 µM).

What about the LD50 [7] of the same molecule?
The LD50 was > 300 mg/kg.

Which IC50 [8] does the source give for COC(=O)/C=C/C(=O)NC[C@H](N)C(=O)O here?
Its IC50 is 4.03 µg/mL (≈ 18.6 µM).

And the MIC (Candida albicans [6])?
The MIC was > 200 µg/mL.

And the Ki [9]?
Its Ki is 100 nM.

What does the source list for CN[C@@H]1[C@H](O[C@@H]2OC[C@@H](O)[C@H](O)[C@H]2O)[C@@H](O)[C@H](O[C@H]2c3cc(C)c(C(=O)N[C@H](CO)C(=O)O)c(O)c3-c3c(cc4c(c3O)C(=O)c3cc(OC)cc(O)c3C4=O)[C@@H]2O)O[C@@H]1C?
MIC (Blastomyces dermatitidis): 0.8 µg/mL (≈ 0.934 µM); MIC (Sporothrix schenckii): 0.8 µg/mL (≈ 0.934 µM); MIC (Fusarium verticillioides): 0.8 µg/mL (≈ 0.934 µM); MIC (Cryptococcus neoformans [10]): 0.8 µg/mL (≈ 0.934 µM); MIC (Aspergillus fumigatus [11]): 0.8 µg/mL (≈ 0.934 µM); MIC (Candida albicans [12]): 0.8 µg/mL (≈ 0.934 µM); MIC [13]: 0.8 µg/mL (≈ 0.934 µM); MIC (Scedosporium boydii): 0.8 µg/mL (≈ 0.934 µM); MIC (Candida albicans [14]): 0.8 µg/mL (≈ 0.934 µM); MIC (Cryptococcus neoformans [15]): 0.8 µg/mL (≈ 0.934 µM); MIC (Aspergillus fumigatus [16]): 0.8 µg/mL (≈ 0.934 µM); MIC (Aspergillus flavus [17]): 0.8 µg/mL (≈ 0.934 µM); MIC [18]: 0.8 µg/mL (≈ 0.934 µM); ED50 (Candida albicans [19]): 7.4 mg/kg

For COc1ccc(N2CCN(C(=O)[C@H](O)[C@@H](O)C(=O)Nc3c(O)c4cc(O)ccc4oc3=O)CC2)cc1, which IC50 [20] is on record?
Its IC50 is 100 µM.

Which MIC (Nakaseomyces glabratus) does the source give for COC(=O)/C=C/C(=O)NC[C@H](NC(=O)CN(CCOC(C)=O)CCOC(C)=O)C(=O)OCOC(=O)Cc1ccccc1.Cl here?
Its MIC is 125 µg/mL.

What about the MIC (Candida tropicalis) of the same molecule?
Its MIC is 31.3 µg/mL.

What about the MIC (Candida albicans [21]) of the same molecule?
Its MIC is 31.3 µg/mL.

With O=C(Nc1c(F)cccc1F)OCCCN1CCN(c2nc3ccccc3s2)CC1 as the molecule, how does the MIC (Candida albicans [22]) read?
The MIC was 0.26 µg/mL (≈ 0.601 µM).

And the MIC (Candida albicans [23])?
Its MIC is 0.17 µg/mL (≈ 0.393 µM).

What about the MIC (Aspergillus fumigatus [24]) of the same molecule?
The MIC was 0.15 µg/mL (≈ 0.347 µM).

What about the MIC (Candida albicans [25]) of the same molecule?
The MIC was 0.26 µg/mL (≈ 0.601 µM).

And the MIC (Aspergillus fumigatus [26])?
The MIC was 0.15 µg/mL (≈ 0.347 µM).

What about the MIC (Aspergillus fumigatus [27]) of the same molecule?
Its MIC is 0.15 µg/mL (≈ 0.347 µM).

What about the MIC (Candida albicans [28]) of the same molecule?
Its MIC is 0.17 µg/mL (≈ 0.393 µM).

And the MIC (Candida albicans [29])?
The MIC was 0.26 µg/mL (≈ 0.601 µM).

And the MIC (Candida albicans [30])?
The MIC was 0.26 µg/mL (≈ 0.601 µM).

And the IC50 [31]?
Its IC50 is 160 nM.

With O=C(Nc1c(O)c2ccccc2oc1=O)[C@H](O)[C@@H](O)C(=O)N1CCN(c2ccc(Cl)cc2)CC1 as the molecule, how does the MIC (Candida albicans [32]) read?
Its MIC is 4 µg/mL (≈ 8.2 µM).

And the MIC (Aspergillus fumigatus [33])?
The MIC was 4 µg/mL (≈ 8.2 µM).

And the MIC (Aspergillus flavus [34])?
The MIC was 4 µg/mL (≈ 8.2 µM).

What about the MIC (Cryptococcus neoformans [35]) of the same molecule?
Its MIC is 4 µg/mL (≈ 8.2 µM).
